The values that follow come from patent publication EP4631938A1, “NITROGEN-CONTAINING HETEROCYCLE WITH SEROTONIN RECEPTOR-BINDING ACTIVITY AND CARBOCYCLIC DERIVATIVE” (Shionogi & Co., Ltd, priority 2022, dated 2024).

In assay [1] the target is T1, human recombinant 5-HT2A receptor (Homo sapiens, UniProt P28223).
T1 construct: expressed in transfected cells; host or cells: Jump-In HEK cells (membrane preparation)
Nature of the assay: Test Example 1-2: 5-HT2A receptor binding inhibition test ([3H]-Ketanserin; non-specific ligand Ketanserin). Particulars: [3H]-Ketanserin; non-specific binding with 500 µmol/L Ketanserin; room temperature (25°C), 1.5 hours; read-out: h 5-HT2A Ki. As for the experimental part: The Kd value is calculated when the lot of the cell membrane is changed. 1 mmol/L non-specific binding calculating compound dissolved in DMSO or DMSO is previously dispensed to the microplate by 0.5 µL, and the cell membrane is diluted with an Assay buffer. The radioactive ligand solution is diluted step by step, and counts are checked with a liquid scintillator. The Assay buffer containing diluted cell membranes is dispensed by 50 µL/well into the microplate. The radioactive ligand solution is then dispensed by 50 µL/well into the microplate and the plate is sealed. The microplate is allowed to stand for 1.5 hours at room temperature (25°C). During this time, 50 mmol/L Tris-HCl (pH 7.4) is dispensed by 50 µL/well into the UniFilter plate and allowed to stand at 4°C for 1 hour or longer. Thereafter, filtration is performed with a Cell Harvester (PerkinElmer). The radioactive ligand solution is dispensed by 10 µL/well into empty wells of the UniFilter plate. After drying the UniFilter plate at room temperature, MicroScinti20 is dispensed by 50 µL/well into the UniFilter plate, and the plate is sealed. UniFilter plate is allowed to stand at room temperature overnight. The radioactivity of [^3H]-Ketanserin bound to the 5-HT2A receptor is measured using Microbeta2 (PerkinElmer) at a measurement time of 1 min/well. The Saturation curve is drawn from the measured value, and the Kd value is calculated from the slope of the Scatchard Plot.
A compound solution dissolved in DMSO is dispensed to a microplate by 0.5 µL, and a cell membrane and a hot ligand are each diluted with an Assay buffer. The Assay buffer containing diluted cell membrane is then dispensed by 50 µL/well into the microplate. The radioactive ligand solution is then dispensed by 50 µL/well into the microplate and the plate is sealed. Thereafter, the microplate is allowed to stand at room temperature (25°C) for 1.5 hours. During this time, 50 mmol/L Tris-HCl (pH 7.4) is dispensed by 50 µL/well into the UniFilter plate and allowed to stand at 4°C for 1 hour or longer. Thereafter, filtration is performed with a Cell Harvester (PerkinElmer). After drying the UniFilter plate at room temperature, MicroScinti20 is dispensed by 50 µL/well into the UniFilter plate, and the plate is sealed. UniFilter plate is allowed to stand at room temperature overnight. The radioactivity of [^3H]-Ketanserin bound to the 5-HT2A receptor is measured using Microbeta2 (PerkinElmer) at a measurement time of 1 min/well. Non-specific binding is calculated from the radioactivity of [^3H]-Ketanserin in the presence of 500 µmol/L Ketanserin of unlabeled ligand, and total binding is calculated from the radioactivity of [^3H]-Ketanserin in the absence of the compound of the present invention (Vehicle). Finally, the Ki value is calculated from the dose-response curve.
(§1) (The binding activity of the compound according to the present invention is calculated from the following binding inhibition rate (%).) Inhibition rate (%) = [1−(c−a)/(b−a)] × 100 [formula] • a; average cpm of non-specific binding • b; average cpm of total binding • c; cpm in the presence of the test compound
(§2) The compounds of the present invention were tested essentially as described above.

The target in assay [2] is T2, human recombinant 5-HT2C receptor (Homo sapiens, UniProt P28335).
T2 construct: expressed in transfected cells; host or cells: Jump-In HEK cells (membrane preparation)
T2 sequence (P28335 33-458): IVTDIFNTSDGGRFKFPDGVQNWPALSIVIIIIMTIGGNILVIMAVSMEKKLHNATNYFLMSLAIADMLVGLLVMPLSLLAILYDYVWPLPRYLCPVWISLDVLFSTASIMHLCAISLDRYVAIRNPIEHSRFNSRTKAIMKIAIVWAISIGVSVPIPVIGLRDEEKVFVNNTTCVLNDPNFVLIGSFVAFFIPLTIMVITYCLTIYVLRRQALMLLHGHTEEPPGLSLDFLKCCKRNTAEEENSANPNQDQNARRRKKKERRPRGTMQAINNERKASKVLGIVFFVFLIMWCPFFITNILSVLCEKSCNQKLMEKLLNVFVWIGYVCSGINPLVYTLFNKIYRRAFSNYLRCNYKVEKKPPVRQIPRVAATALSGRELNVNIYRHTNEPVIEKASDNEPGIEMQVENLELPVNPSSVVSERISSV
Nature of the assay: Test Example 2: 5-HT2C receptor binding inhibition test ([3H]-Mesulergine; non-specific ligand Serotonin HCl). Particulars: human serotonin 5-HT2C receptor binding activity. As for the experimental part: The Kd value is calculated when the lot of the cell membrane is changed. 1 mmol/L non-specific binding calculating compound dissolved in DMSO or DMSO is previously dispensed to the microplate by 0.5 µL, and the cell membrane is diluted with an Assay buffer. The radioactive ligand solution is diluted step by step, and counts are checked with a liquid scintillator. The Assay buffer containing diluted cell membranes is dispensed by 50 µL/well into the microplate. The radioactive ligand solution is then dispensed by 50 µL/well into the microplate and the plate is sealed. The microplate is allowed to stand at 37°C for 2 hours. During this time, 50 mmol/L Tris-HCl (pH 7.4) is dispensed by 50 µL/well into the GF/B UniFilter plate and allowed to stand at 4°C for 1 hour or longer. Thereafter, filtration is performed with a Cell Harvester (PerkinElmer). The radioactive ligand solution is dispensed by 10 µL/well into empty wells of the GF/B UniFilter plate. After drying the GF/B UniFilter plate at room temperature, MicroScinti20 is dispensed by 50 µL/well into the GF/B UniFilter plate, and the plate is sealed. GF/B UniFilter plate is allowed to stand at room temperature overnight. The radioactivity of [^3H]-Mesulergine bound to the 5-HT2C receptor is measured using Microbeta2 (PerkinElmer) at a measurement time of 1 min/well. The Saturation curve is drawn from the measured value, and the Kd value is calculated from the slope of the Scatchard Plot.
A compound solution dissolved in DMSO is dispensed to a microplate by 0.5 µL, and a cell membrane and a hot ligand are each diluted with an Assay buffer. The Assay buffer containing diluted cell membrane is then dispensed by 50 µL/well into the microplate. The radioactive ligand solution is then dispensed by 50 µL/well into the microplate and the plate is sealed. The microplate is then allowed to stand at 37°C for 2 hours. During this time, 50 mmol/L Tris-HCl (pH 7.4) is dispensed by 50 µL/well into the GF/B UniFilter plate and allowed to stand at 4°C for 1 hour or longer. Thereafter, filtration is performed with a Cell Harvester (PerkinElmer). After drying the GF/B UniFilter plate at room temperature, MicroScinti20 is dispensed by 50 µL/well into the GF/B UniFilter plate, and the plate is sealed. GF/B UniFilter plate is allowed to stand at room temperature overnight. The radioactivity of [^3H]-Mesulergine bound to the 5-HT2C receptor is measured using Microbeta2 (PerkinElmer) at a measurement time of 1 min/well. Non-specific binding is calculated from the radioactivity of [^3H]-Mesulergine in the presence of 500 µmol/L Serotonin HCl of unlabeled ligand, and total binding is calculated from the radioactivity of [^3H]-Mesulergine in the absence of the compound of the present invention (Vehicle). Finally, the Ki value is calculated from the dose-response curve.
as §1, §2

T1 sequence (P28223 whole entry): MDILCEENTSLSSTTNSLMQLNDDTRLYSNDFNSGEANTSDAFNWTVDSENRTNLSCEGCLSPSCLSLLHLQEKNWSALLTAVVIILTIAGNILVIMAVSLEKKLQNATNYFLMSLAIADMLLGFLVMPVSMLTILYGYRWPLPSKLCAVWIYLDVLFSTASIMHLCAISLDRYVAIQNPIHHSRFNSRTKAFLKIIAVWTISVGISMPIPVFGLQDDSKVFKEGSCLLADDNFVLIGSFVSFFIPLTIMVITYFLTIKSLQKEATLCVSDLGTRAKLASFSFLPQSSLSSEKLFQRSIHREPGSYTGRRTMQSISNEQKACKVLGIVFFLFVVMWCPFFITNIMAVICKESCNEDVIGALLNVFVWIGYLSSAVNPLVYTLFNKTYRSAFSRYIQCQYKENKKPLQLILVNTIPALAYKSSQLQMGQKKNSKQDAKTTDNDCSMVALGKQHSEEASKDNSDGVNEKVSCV

With `Cc1nc(OC2CC2)nc(C)c1-c1cc(Nc2ncc(C(F)(F)F)cc2Cl)ncc1OCCO` [Compound I-212], the Ki (in general, a dissociation constant, usually derived from enzyme kinetics or from competition with a known ligand) in assay [1] was found to be 1.22 nM; in assay [2] it was 3.89 nM.

Regarding `COCCOc1nc(C)c(-c2cc(Nc3ncc(C(F)(F)F)cc3Cl)ncc2OCCO)c(C)n1` [Compound I-213], the Ki in assay [1] is 1.26 nM; in assay [2], 4.07 nM.

As to `Cc1nc(N2CCCC2=O)nc(C)c1-c1cc(Nc2ncc(C(F)(F)F)cc2Cl)ncc1OCCO` [Compound I-215], the Ki in assay [1] was 4.48 nM; in assay [2], 9.55 nM.

With `COCCc1nc(C)c(-c2cc(Nc3ncc(C(F)(F)F)cc3Cl)ncc2OCCO)c(C)n1` [Compound I-217], the Ki came to 1.74 nM in assay [1] and 2.66 nM in assay [2].

As for `COCC(F)(F)COc1nc(C)c(-c2cc(Nc3ncc(C(F)(F)F)cc3Cl)ncc2OCCO)c(C)n1` [Compound I-218], the Ki was 1.22 nM in assay [1] and 3.36 nM in assay [2].

For the compound `Cc1nc(OCC2COC2)nc(C)c1-c1cc(Nc2ncc(C(F)(F)F)cc2Cl)ncc1OCCO` [Compound I-219], the Ki in assay [1] came out at 1.25 nM; in assay [2] it was 6.28 nM.

For the compound `Cc1nc(OC2COC2)nc(C)c1-c1cc(Nc2ncc(C(F)(F)F)cc2Cl)ncc1OCCO` [Compound I-220], the Ki in assay [1] was 1.39 nM; in assay [2], 5.91 nM.

Consider `CCc1nc(C)c(-c2cc(Nc3ncc(C(F)(F)F)cc3Cl)ncc2OCCO)c(C)n1` [Compound I-221], for which the Ki came to 0.996 nM in assay [1] and 2.23 nM in assay [2].

For the compound `CCCc1nc(C)c(-c2cc(Nc3ncc(C(F)(F)F)cc3Cl)ncc2OCCO)c(C)n1` [Compound I-222], the Ki in assay [1] turned out to be 1.35 nM; in assay [2], 1.91 nM.

With `Cc1nc(C(F)F)nc(C)c1-c1cc(Nc2ncc(C(F)(F)F)cc2Cl)ncc1OCCO` [Compound I-223], the Ki in assay [1] came to 0.877 nM; in assay [2] it was 9.21 nM.

Consider `Cc1cc(C(F)(F)F)cnc1Nc1cc(-c2c(C)cnn2C)c(OCCO)cn1` [Compound I-226], for which the figures for the Ki in assay [1] and in assay [2] were 0.268 nM and 1.91 nM, respectively.

For the compound `O=C1NCCc2c1cccc2-c1cc(Nc2ncc(C(F)(F)F)cc2F)ncc1OCCO` [Compound I-227], the Ki in assay [1] was determined as 1.21 nM; in assay [2] it was 26.7 nM.

In the case of `Cn1ncc(Cl)c1-c1cc(Nc2ccc(OC(C)(F)F)cn2)ncc1OCCO` [Compound I-229], the Ki turned out to be 0.28 nM in assay [1] and 2.22 nM in assay [2].

`COCc1nc(C)c(-c2cc(Nc3ncc(-c4ccc(F)cc4)cc3Cl)ncc2OCCO)c(C)n1` [Compound I-230]: the values for the Ki in assay [1] and in assay [2] were 0.576 nM and 0.372 nM, respectively.

Turning to `COCc1nc(C)c(-c2cc(Nc3ncc(OC(F)F)cc3Cl)ncc2OCCO)c(C)n1` [Compound I-231], the Ki in assay [1] stood at 3.78 nM; in assay [2], 5.1 nM.

For the compound `COCc1nc(C)c(-c2cc(Nc3ncc(OCC(F)(F)F)cc3Cl)ncc2OCCO)c(C)n1` [Compound I-232], the Ki in assay [1] turned out to be 8.27 nM; in assay [2], 6.06 nM.

For the compound `COCc1nc(C)c(-c2cc(Nc3ncc(OCC(F)(F)C(F)(F)F)cc3Cl)ncc2OCCO)c(C)n1` [Compound I-233], the values for the Ki in assay [1] and in assay [2] were 4.42 nM and 1.76 nM, respectively.

On to `COCc1nc(C)c(-c2cc(Nc3ncc(-c4ccc(Cl)c(F)c4)cc3Cl)ncc2OCCO)c(C)n1` [Compound I-234], for which the Ki in assay [1] is 0.525 nM; in assay [2], 0.167 nM.

Regarding `COCc1nc(C)c(-c2cc(Nc3ncc(-c4ccc(Cl)cn4)cc3Cl)ncc2OCCO)c(C)n1` [Compound I-235], the Ki amounted to 0.925 nM in assay [1] and 0.984 nM in assay [2].

`COCc1nc(C)c(-c2cc(Nc3ncc(-n4cc(Cl)cn4)cc3Cl)ncc2OCCO)c(C)n1` [Compound I-236]: the Ki in assay [1] worked out at 1.24 nM; in assay [2] it was 0.727 nM.

Consider `COCc1nc(C)c(-c2cc(Nc3ncc(-c4cnn(C(F)F)c4)cc3Cl)ncc2OCCO)c(C)n1` [Compound I-237], for which the Ki is 7.43 nM in assay [1] and 7.37 nM in assay [2].

For `COCc1nc(C)c(-c2cc(Nc3ncc(OCCCC(F)(F)F)cc3Cl)ncc2OCCO)c(C)n1` [Compound I-238], the Ki is 5.12 nM in assay [1] and 2.64 nM in assay [2].

For `COCc1nc(C)c(-c2cc(Nc3ncc(-c4ncc(Cl)cn4)cc3Cl)ncc2OCCO)c(C)n1` [Compound I-239], the Ki in assay [1] stood at 2.3 nM; in assay [2] it was 1.35 nM.

Regarding `COCc1nc(C)c(-c2cc(Nc3ncc(-c4nc(C(F)(F)F)co4)cc3Cl)ncc2OCCO)c(C)n1` [Compound I-240], the values for the Ki in assay [1] and in assay [2] were 2.05 nM and 1.54 nM, respectively.

`COCc1nc(C)c(-c2cc(Nc3ncc(-c4ccc(C#N)cc4)cc3Cl)ncc2OCCO)c(C)n1` [Compound I-241]: the Ki stood at 0.799 nM in assay [1] and 0.637 nM in assay [2].

Turning to `COCc1nc(C)c(-c2cc(Nc3ncc(-c4ccc(C(F)F)cc4)cc3Cl)ncc2OCCO)c(C)n1` [Compound I-242], the Ki came out at 0.258 nM in assay [1] and 0.337 nM in assay [2].

Take `COCc1nc(C)c(-c2cc(Nc3ncc(-c4cnn(C(F)(F)F)c4)cc3Cl)ncc2OCCO)c(C)n1` [Compound I-243]: the Ki in assay [1] stood at 3.58 nM; in assay [2], 2.53 nM.

Regarding `COCc1nc(C)c(-c2cc(Nc3ncc(-c4ccc(C#N)nc4)cc3Cl)ncc2OCCO)c(C)n1` [Compound I-244], the Ki in assay [1] stood at 3.75 nM; in assay [2] it was 2.87 nM.
